Source: the supplement of paper PMC10307832

Key:
Assay in all cases: relative viability (nuclei count vs DMSO), 5 days (fraction); higher = more cells survive
Tipifarnib + Vorinostat = compound: Cn1cncc1[C@@](N)(c1ccc(Cl)cc1)c1ccc2c(c1)c(-c1cccc(Cl)c1)cc(=O)n2C [Tipifarnib] + O=C(CCCCCCC(=O)Nc1ccccc1)NO [Vorinostat] (partner 1 µM)
Outline: (§1)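 After 5 days of treatment, lung cancer cells in 1536-well plates were fixed and stained in a single step (final 0.05% Triton X-100, 1% formaldehyde, 1 ug/ml Hoechst) and their nuclei counted on 4× images. Treatment had been applied by pin tool the day after seeding as one drug alone or as a fixed anchor-drug dose with five library-drug doses (not always all listed) in √10 steps. Relative viability is the nuclei count of treated wells divided by that of vehicle wells, and values are medians of duplicate plates.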

Tipifarnib + Foretinib = compound: Cn1cncc1[C@@](N)(c1ccc(Cl)cc1)c1ccc2c(c1)c(-c1cccc(Cl)c1)cc(=O)n2C [Tipifarnib] + COc1cc2c(Oc3ccc(NC(=O)C4(C(=O)Nc5ccc(F)cc5)CC4)cc3F)ccnc2cc1OCCCN1CCOCC1 [Foretinib] (partner 0.25 µM)
Outline: as §1

Tipifarnib + Pictilisib = compound: Cn1cncc1[C@@](N)(c1ccc(Cl)cc1)c1ccc2c(c1)c(-c1cccc(Cl)c1)cc(=O)n2C [Tipifarnib] + CS(=O)(=O)N1CCN(Cc2cc3nc(-c4cccc5[nH]ncc45)nc(N4CCOCC4)c3s2)CC1 [Pictilisib] (partner 1 µM)
Outline: as §1

Tipifarnib + AZD7762 = compound: Cn1cncc1[C@@](N)(c1ccc(Cl)cc1)c1ccc2c(c1)c(-c1cccc(Cl)c1)cc(=O)n2C [Tipifarnib] + NC(=O)Nc1cc(-c2cccc(F)c2)sc1C(=O)N[C@H]1CCCNC1 [AZD7762] (partner 0.2 µM)
Outline: as §1

Cell Line	relative viability (Tipifarnib + Vorinostat; first compound 0.01 µM)	relative viability (Tipifarnib + Vorinostat; first compound 0.03162 µM)	relative viability (Tipifarnib + Vorinostat; first compound 0.1 µM)	relative viability (Tipifarnib + Vorinostat; first compound 0.3162 µM)	relative viability (Tipifarnib + Vorinostat; first compound 1 µM)	relative viability (Tipifarnib + Foretinib; first compound 0.01 µM)	relative viability (Tipifarnib + Foretinib; first compound 0.03162 µM)	relative viability (Tipifarnib + Foretinib; first compound 0.1 µM)	relative viability (Tipifarnib + Foretinib; first compound 0.3162 µM)	relative viability (Tipifarnib + Foretinib; first compound 1 µM)	relative viability (Tipifarnib + Pictilisib; first compound 0.01 µM)	relative viability (Tipifarnib + Pictilisib; first compound 0.03162 µM)	relative viability (Tipifarnib + Pictilisib; first compound 0.1 µM)	relative viability (Tipifarnib + Pictilisib; first compound 0.3162 µM)	relative viability (Tipifarnib + Pictilisib; first compound 1 µM)	relative viability (Tipifarnib + AZD7762; first compound 0.01 µM)	relative viability (Tipifarnib + AZD7762; first compound 0.03162 µM)	relative viability (Tipifarnib + AZD7762; first compound 0.1 µM)	relative viability (Tipifarnib + AZD7762; first compound 0.3162 µM)	relative viability (Tipifarnib + AZD7762; first compound 1 µM)
NCI-H2228	0.398	0.453	0.493	0.314	0.3	1.04	0.815	0.636	0.495	0.672	0.369	0.388	0.325	0.202	0.243	–	–	–	–	–
NCI-H2087	0.668	0.363	0.292	0.248	0.222	0.999	0.371	0.333	0.292	0.3	0.796	0.682	0.587	0.427	0.385	0.99	0.48	0.249	0.241	0.395
LU99A	0.389	0.385	0.327	0.271	0.277	0.757	0.651	0.653	0.497	0.395	0.29	0.264	0.219	0.208	0.193	0.277	0.272	0.255	0.182	0.224
NCI-H1355	0.625	0.544	0.409	0.466	0.301	1.12	0.94	0.855	0.694	0.734	0.439	0.401	0.356	0.301	0.293	0.833	0.707	0.517	0.473	0.478
NCI-H520	0.781	0.695	0.599	0.515	0.47	0.978	0.614	0.681	0.506	0.351	0.283	0.227	0.243	0.275	0.166	–	–	–	–	–
NCI-H661	0.822	0.657	0.684	0.558	0.569	1.03	1.03	0.936	0.793	0.83	0.441	0.535	0.419	0.474	0.326	–	–	–	–	–
NCI-H650	0.366	0.325	0.346	0.249	0.189	1.21	0.999	0.934	0.749	0.704	1.14	0.746	0.647	0.557	0.351	1.39	1.17	0.77	0.667	0.429
NCI-H647	0.321	0.326	0.352	0.157	0.13	1.44	0.78	0.95	0.379	0.534	0.403	0.416	0.364	0.406	0.167	0.405	0.48	0.308	0.116	0.0944
SW 1573	0.701	0.434	0.308	0.312	0.179	1.12	0.873	0.657	0.498	0.173	0.492	0.426	0.397	0.289	0.236	–	–	–	–	–
COR-L23	0.541	0.34	0.316	0.221	0.252	1.14	0.839	0.699	0.618	0.579	0.816	0.509	0.458	0.383	0.298	–	–	–	–	–
SK-LU-1	0.771	0.635	0.492	0.417	0.471	0.877	0.723	0.542	0.481	0.477	0.574	0.568	0.424	0.378	0.299	–	–	–	–	–
NCI-H1650	0.415	0.399	0.306	0.253	0.212	0.766	0.633	0.668	0.424	0.554	0.409	0.228	0.337	0.265	0.191	–	–	–	–	–
UMC-11	0.314	0.348	0.338	0.291	0.307	0.856	0.725	0.612	0.616	0.578	0.676	0.511	0.495	0.445	0.31	–	–	–	–	–
SK-MES-1	1.14	0.99	1.05	0.842	0.57	0.916	0.869	0.905	0.681	0.542	0.349	0.401	0.395	0.247	0.239	–	–	–	–	–
NCI-H2009	0.604	0.411	0.405	0.577	0.504	1.3	1.11	0.84	0.645	0.7	0.981	0.579	0.524	0.466	0.319	–	–	–	–	–
NCI-H2023	0.598	0.366	0.289	0.186	0.137	0.958	0.7	0.609	0.336	0.505	0.238	0.212	0.203	0.169	0.159	–	–	–	–	–
COR-L 105	0.982	0.75	0.605	0.504	0.478	1.18	0.872	0.897	0.504	0.604	0.47	0.33	0.357	0.353	0.355	–	–	–	–	–
NCI-H1563	–	–	–	–	–	1.03	1.04	0.879	0.82	0.87	0.669	0.64	0.655	0.628	0.589	–	–	–	–	–
EBC-1	–	–	–	–	–	0.103	0.0929	0.0996	0.113	0.0971	0.313	0.199	0.198	0.183	0.242	–	–	–	–	–
Calu-6	–	–	–	–	–	0.886	0.62	0.698	0.518	0.424	0.891	0.641	0.555	0.442	0.386	–	–	–	–	–
HCC-44	0.963	1.04	1.01	0.903	0.881	–	–	–	–	–	0.667	0.619	0.451	0.262	0.363	0.943	0.979	0.959	0.899	0.837
